The values below come from US20240199605A1, “SMALL MOLECULAR INHIBITORS OF NF-kB INDUCING KINASE” (Janssen Pharmaceutica NV, priority 2019, published 2024).

A word on the IC50: it is the midpoint of a concentration-inhibition curve.

Assay [1] addresses recombinant human NF-kappaB-inducing kinase (NIK/MAP3K14) (Homo sapiens (Human), UniProt Q99558). The assay is described as follows: Inhibition of auto-phosphorylation of recombinant human NIK/MAP3K14 (AlphaScreen). The assay is classed as biochemical. The settings on record: NIK auto-phosphorylation, 5 μM ATP, 1 nM NIK, 2 h at 25° C.; average of values. In outline:
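AlphaScreen read-out (anti-phospho-IKK Ser176/180 antibody, Protein A acceptor and glutathione donor beads) of NIK auto-phosphorylation. Reaction: 1 nM enzyme, 5 μM ATP, Tris pH 7.5 buffer with Mg2+ and vanadate, 2 h at 25° C., final DMSO 0.7%. IC50 came from a sigmoidal curve fit.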
Background: Bead proximity is the source of the signal in Alpha formats.

Assay [2] relates to p-IKKα levels in L363 (NIK translocated multiple myeloma) cells. Put plainly: Effect of compounds on p-IKKα levels in L363 cells (AlphaLISA SureFire Ultra). The format is cell-based, human. The conditions noted are these: Homo sapiens, L-363, 6 h, BAFF stimulated, MG132, 6 h, average of values, read-out: Assay 2 IC50. In outline: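 Inhibition of p-IKKα (Ser176/180) read by AlphaLISA after 6 h, 37 °C compound exposure (11-point 1:3 series, 0.3% DMSO) of L363 cells pre-incubated overnight ± 250 ng/ml BAFF and plated ± BAFF ± 10 μM MG132. Normalised to BAFF/MG132/DMSO and unstimulated controls; IC50 by sigmoidal fitting, duplicates.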

Bounds are passed on as bounds.

Chain of recombinant human NF-kappaB-inducing kinase (NIK/MAP3K14) (Q99558 whole entry): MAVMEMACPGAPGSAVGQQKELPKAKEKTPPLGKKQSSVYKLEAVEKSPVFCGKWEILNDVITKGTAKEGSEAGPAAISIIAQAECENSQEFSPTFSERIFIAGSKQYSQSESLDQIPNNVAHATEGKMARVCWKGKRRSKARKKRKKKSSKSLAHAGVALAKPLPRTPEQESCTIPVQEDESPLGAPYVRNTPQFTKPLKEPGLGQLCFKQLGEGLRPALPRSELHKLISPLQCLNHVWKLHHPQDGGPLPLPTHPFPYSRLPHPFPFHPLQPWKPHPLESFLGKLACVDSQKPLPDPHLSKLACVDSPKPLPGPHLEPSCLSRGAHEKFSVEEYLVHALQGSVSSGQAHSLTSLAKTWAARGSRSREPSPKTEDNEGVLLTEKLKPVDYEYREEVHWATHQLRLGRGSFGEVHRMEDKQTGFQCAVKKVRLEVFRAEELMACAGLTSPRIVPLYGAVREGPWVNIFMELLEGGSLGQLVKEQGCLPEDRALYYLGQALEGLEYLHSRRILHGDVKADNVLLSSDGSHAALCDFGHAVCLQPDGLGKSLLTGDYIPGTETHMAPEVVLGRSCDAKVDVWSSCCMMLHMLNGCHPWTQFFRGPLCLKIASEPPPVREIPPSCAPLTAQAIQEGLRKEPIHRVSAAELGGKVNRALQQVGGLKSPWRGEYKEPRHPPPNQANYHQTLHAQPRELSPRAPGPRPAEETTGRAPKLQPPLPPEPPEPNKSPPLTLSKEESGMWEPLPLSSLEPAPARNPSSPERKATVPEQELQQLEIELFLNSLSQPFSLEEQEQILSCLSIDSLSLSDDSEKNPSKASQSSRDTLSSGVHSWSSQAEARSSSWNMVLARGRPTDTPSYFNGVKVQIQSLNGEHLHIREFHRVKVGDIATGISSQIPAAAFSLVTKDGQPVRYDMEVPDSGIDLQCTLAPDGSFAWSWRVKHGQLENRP

In the case of `CN1CC[C@@](O)(C#Cc2cccc(-c3ncc4c(-c5cnn(CC(C)(C)O)c5)cnc(N)c4n3)c2)C1=O` [Example 123, (R)-3-[2-[3-[8-Amino-5-[1-(2-hydroxy-2-methyl-propyl)pyrazol-4-yl]pyrido[3,4-d]pyrimidin-2-yl]phenyl]ethynyl]-3-hydroxy-1-methyl-pyrrolidin-2-one], the figures for the IC50 in assay [1] and in assay [2] were ≤ 0.5 nM and 4 nM, respectively.
For `Cc1nc(N)c2nc(-c3cccc(C#C[C@]4(O)CCN(C)C4=O)c3)cnc2n1` [Example 148, (R)-3-[2-[3-(4-Amino-2-methyl-pteridin-6-yl)phenyl]ethynyl]-3-hydroxy-1-methyl-pyrrolidin-2-one] the same measures were 1.4 nM and 370 nM.
For `CN(C)Cc1cnc(N)c2nc(-c3cccc(C#C[C@]4(O)CCN(C)C4=O)c3)ncc12` [Example 135, (R)-3-[2-[3-[8-Amino-5-(dimethylaminomethyl)pyrido[3,4-d]pyrimidin-2-yl]phenyl]ethynyl]-3-hydroxy-1-methyl-pyrrolidin-2-one] the same measures were 5.7 nM and 140 nM.
As to `Nc1nccc2cnc(-c3cccc(C#C[C@]4(O)CCn5ccnc54)c3)nc12` [Example 17, (R)-7-[2-[3-(8-Aminopyrido[3,4-d]pyrimidin-2-yl)phenyl]ethynyl]-5,6-dihydropyrrolo[1,2-a]imidazol-7-ol], the IC50 in assay [1] was ≤ 0.5 nM; in assay [2] it was 5.9 nM.
Turning to `CN1CC[C@@](O)(C#Cc2cccc(-c3ncc4c(-c5cn[nH]c5)cnc(N)c4n3)c2)C1=O` [Example 124, (R)-3-[2-[3-[8-Amino-5-(1H-pyrazol-4-yl)pyrido[3,4-d]pyrimidin-2-yl]phenyl]ethynyl]-3-hydroxy-1-methyl-pyrrolidin-2-one], the IC50 was ≤ 0.5 nM in assay [1] and 7.7 nM in assay [2].
Taken in the same sequence, the figures for `Cc1nc(N)c2nc(-c3cccc(C#C[C@@]4(O)C(=O)N(C)C[C@H]4C)c3)ccc2n1` (stereo in doubt) [Example 292, (3R,4R*)-3-((3-(4-Amino-2-methylpyrido[3,2-d]pyrimidin-6-yl)phenyl)ethynyl)-3-hydroxy-1,4-dimethylpyrrolidin-2-one] were 22 nM and 660 nM.
For `Cc1nc(N)c2nc(-c3cccc(C#C[C@@](C)(O)c4ncccn4)c3)ccc2n1` [Example 197, (R)-4-[3-(4-Amino-2-methyl-pyrido[3,2-d]pyrimidin-6-yl)phenyl]-2-pyrimidin-2-yl-but-3-yn-2-ol] the same measures were 6.3 nM and 380 nM.
For `Nc1ncnc2cnc(-c3cccc(C#C[C@]4(O)CCn5ccnc54)c3)nc12` [Example 146, (R)-7-[2-[3-(4-Aminopyrimido[5,4-d]pyrimidin-6-yl)phenyl]ethynyl]-5,6-dihydropyrrolo[1,2-a]imidazol-7-ol] the same measures were ≤ 0.5 nM and 2.7 nM.
Consider `CN1CC[C@@](C#Cc2cccc(-c3ccc4ncnc(N)c4n3)c2)(C(F)F)C1=O` [Example 205, (S)-3-((3-(4-Aminopyrido[3,2-d]pyrimidin-6-yl)phenyl)ethynyl)-3-(difluoromethyl)-1-methylpyrrolidin-2-one], for which the IC50 in assay [1] was 4880 nM; in assay [2], > 5000 nM.
Take `CN1CC[C@@](O)(C#Cc2cccc(-c3ccc4c(Br)cnc(N)c4n3)c2)C1=O` [Example 112, (R)-3-[2-[3-(8-Amino-5-bromo-1,7-naphthyridin-2-yl)phenyl]ethynyl]-3-hydroxy-1-methyl-pyrrolidin-2-one]: the IC50 is ≤ 0.5 nM in assay [1] and 4.8 nM in assay [2].
For `CN1CC[C@@](O)(C#Cc2cccc(-c3cc(C(F)(F)F)c4ncnc(N)c4c3)c2)C1=O` [Example 115, (R)-3-((3-(4-Amino-8-(trifluoromethyl)quinazolin-6-yl)phenyl)ethynyl)-3-hydroxy-1-methylpyrrolidin-2-one] the same measures were ≤ 0.5 nM and 42 nM.
Taken in the same sequence, the figures for `Cc1nc(N)c2nc(-c3cc(C#C[C@]4(O)CCN(C)C4=O)ccc3OC(F)(F)F)ccc2n1` [Example 237, (R)-3-((3-(4-Amino-2-methylpyrido[3,2-d]pyrimidin-6-yl)-4-(trifluoromethoxy)phenyl)ethynyl)-3-hydroxy-1-methylpyrrolidin-2-one] were 9.2 nM and 240 nM.
Taken in the same sequence, the figures for `Nc1nccc2cnc(-c3cccc(C#C[C@]4(O)CCc5cccnc54)c3)nc12` [Example 45, (R)-7-[2-[3-(8-Aminopyrido[3,4-d]pyrimidin-2-yl)phenyl]ethynyl]-5,6-dihydrocyclopenta[b]pyridin-7-ol] were ≤ 0.5 nM and 17 nM.
On to `Cc1nnc([C@](C)(O)C#Cc2cccc(-c3ccc4ncnc(N)c4n3)c2)o1` [Example 97, (R)-4-(3-(4-Aminopyrido[3,2-d]pyrimidin-6-yl)phenyl)-2-(5-methyl-1,3,4-oxadiazol-2-yl)but-3-yn-2-ol], for which the IC50 in assay [1] amounted to 0.8 nM; in assay [2], 46 nM.
For `CN1CC[C@@](O)(C#Cc2cccc(-c3ccc4nccc(N)c4n3)c2)C1=O` [Example 219, (R)-3-((3-(8-Amino-1,5-naphthyridin-2-yl)phenyl)ethynyl)-3-hydroxy-1-methylpyrrolidin-2-one] the same measures were 240 nM and > 5000 nM.
For `CN1CC[C@@](O)(C#Cc2cccc(-c3ccc4nc(O)nc(N)c4n3)c2)C1=O` [Example 211, (R)-3-((3-(4-Amino-2-hydroxypyrido[3,2-d]pyrimidin-6-yl)phenyl)ethynyl)-3-hydroxy-1-methylpyrrolidin-2-one] the same measures were 2.2 nM and > 5000 nM.
In the case of `Cc1cc(-c2cccc(C#C[C@@]3(O)C(=O)N(C)[C@@H]4C[C@@H]43)c2)nc2c(N)ncnc12` [Example 281, (1R,4R,5S)-4-((3-(4-Amino-8-methylpyrido[3,2-d]pyrimidin-6-yl)phenyl)ethynyl)-4-hydroxy-2-methyl-2-azabicyclo[3.1.0]hexan-3-one], the IC50 in assay [1] was found to be 0.9 nM; in assay [2], 7.7 nM.
For `CN1CC[C@@](O)(C#Cc2cccc(-c3nc4c(N)ncnc4o3)c2)C1=O` [Example 142, (R)-3-((3-(7-Aminooxazolo[5,4-d]pyrimidin-2-yl)phenyl)ethynyl)-3-hydroxy-1-methylpyrrolidin-2-one] the same measures were 350 nM and > 5000 nM.
For `CN1CC[C@@](O)(C#Cc2cccc(-c3ccc4nc(CF)nc(N)c4n3)c2)C1=O` [Example 170, (R)-3-((3-(4-Amino-2-(fluoromethyl)pyrido[3,2-d]pyrimidin-6-yl)phenyl)ethynyl)-3-hydroxy-1-methylpyrrolidin-2-one] the same measures were 0.8 nM and 22 nM.
Taken in the same sequence, the figures for `Cc1nc(N)c2nc(-c3cccc(C#C[C@]4(O)CCN(C)C4=O)c3)ncc2n1` [Example 14, (R)-3-((3-(8-Amino-6-methylpyrimido[5,4-d]pyrimidin-2-yl)phenyl)ethynyl)-3-hydroxy-1-methylpyrrolidin-2-one] were ≤ 0.5 nM and 18 nM.
Regarding `CN1CC[C@@](O)(C#Cc2cccc(-c3ccc4c(n3)c(N)nn4C)c2)C1=O` [Example 21, (R)-3-[2-[3-(3-Amino-1-methyl-pyrazolo[4,3-b]pyridin-5-yl)phenyl]ethynyl]-3-hydroxy-1-methyl-pyrrolidin-2-one], the IC50 amounted to 22 nM in assay [1] and 590 nM in assay [2].
Taken in the same sequence, the figures for `CN1CC[C@@](O)(C#Cc2cccc(-c3ccc4ncnc(N5CC(F)C5)c4n3)c2)C1=O` [Example 239, (R)-3-((3-(4-(3-Fluoroazetidin-1-yl)pyrido[3,2-d]pyrimidin-6-yl)phenyl)ethynyl)-3-hydroxy-1-methylpyrrolidin-2-one] were 1.5 nM and 69 nM.
For `CN1CC[C@@](O)(C#Cc2cccc(-c3cc(Oc4cnn(C(F)F)c4)c4ncnc(N)c4n3)c2)C1=O` [Example 305, (R)-3-[2-[3-[4-Amino-8-[1-(difluoromethyl)pyrazol-4-yl]oxy-pyrido[3,2-d]pyrimidin-6-yl]phenyl]ethynyl]-3-hydroxy-1-methyl-pyrrolidin-2-one] the same measures were 2.2 nM and 64 nM.
Turning to `Cc1cnc(N)c2nc(-c3cccc(C#C[C@]4(O)CCc5cccnc54)c3)ncc12` [Example 62, (R)-7-((3-(8-Amino-5-methylpyrido[3,4-d]pyrimidin-2-yl)phenyl)ethynyl)-6,7-dihydro-5H-cyclopenta[b]pyridin-7-ol], the IC50 in assay [1] was ≤ 0.5 nM; in assay [2] it was 22 nM.
Taken in the same sequence, the figures for `Cc1c(C#C[C@]2(O)CCN(C)C2=O)cccc1-c1ncc2ccnc(N)c2n1` [Example 41, (R)-3-((3-(8-Aminopyrido[3,4-d]pyrimidin-2-yl)-2-methylphenyl)ethynyl)-3-hydroxy-1-methylpyrrolidin-2-one] were 68 nM and > 5000 nM.
Taken in the same sequence, the figures for `CN1CC[C@@](O)(C#Cc2cccc(-c3ccc4ncnc(N5CCCC5)c4n3)c2)C1=O` [Example 222, (R)-3-Hydroxy-1-methyl-3-((3-(4-(pyrrolidin-1-yl)pyrido[3,2-d]pyrimidin-6-yl)phenyl)ethynyl)pyrrolidin-2-one] were 4.2 nM and 390 nM.
